Experimental data reported in ChEMBL document CHEMBL1212812, “Multi-target spectral moment QSAR versus ANN for antiparasitic drugs against different parasite species” (Bioorg Med Chem, 2010).
Counter-ions that a name gives are not always drawn.

Experiments:
Assay type in all cases: functional, organism-based
Plasmodium falciparum = test: Antimicrobial activity against Plasmodium falciparum
Entamoeba histolytica = test: Antimicrobial activity against Entamoeba histolytica
Leishmania infantum = test: Antimicrobial activity against Leishmania infantum

SMILES	IC50 (Plasmodium falciparum)	IC50 (Entamoeba histolytica)	IC50 (Leishmania infantum)
COc1ccc2nc3ccc(N(CCCCCCCN(c4ccc5nc6ccc(OC)cc6c(Cl)c5c4)c4ccc5nc6ccc(OC)cc6c(Cl)c5c4)c4ccc5nc6ccc(OC)cc6c(Cl)c5c4)cc3c(Cl)c2c1			1 µM
CC(N)CC(O)(P(=O)(O)O)P(=O)(O)O (stereo unspecified)	200 µM	200 µM	
COc1ccc2nc3ccc(NCCCCNc4ccc5nc6ccc(OC)cc6c(N)c5c4)cc3c(N)c2c1			5 µM
COc1ccc2nc3ccc(COC(=O)CC(C)C)cc3c(N)c2c1			2 µM
O=P(O)(O)C(Nc1ccc2c(c1)CCC2)P(=O)(O)O	200 µM	200 µM	
O=P(O)(O)C(Nc1cc(Cl)cc(Cl)c1)P(=O)(O)O [(3,5-DICHLOROPHENYLAMINO)METHYLENEDIPHOSPHONIC ACID]	200 µM	200 µM	
O=P(O)(O)C(Nc1ccc(O)cn1)P(=O)(O)O	197 µM	96 µM	
O=P(O)(O)C(NCCc1ccccc1)P(=O)(O)O [(PHENETHYLAMINO)METHYLENEDIPHOSPHONIC ACID]	200 µM	200 µM	
O=P(O)(O)C(O)(C1CCC1)P(=O)(O)O [CYCLOBUTYL(HYDROXY)METHYLENEDIPHOSPHONIC ACID]	200 µM	200 µM	
O=P(O)(O)C(O)(CCc1cccnc1)P(=O)(O)O	200 µM	200 µM	
O=P(O)(O)C(O)(C1CC1)P(=O)(O)O [CYCLOPROPYL(HYDROXY)METHYLENEDIPHOSPHONIC ACID]	200 µM	200 µM	
O=P(O)(O)C(Nc1ccc(-c2ccccc2)cc1)P(=O)(O)O		9 µM	
COc1ccc2nc3ccc(N(CCCCCCN(c4ccc5nc6ccc(OC)cc6c(N)c5c4)c4ccc5nc6ccc(OC)cc6c(N)c5c4)c4ccc5nc6ccc(OC)cc6c(N)c5c4)cc3c(N)c2c1			7 µM
O=P(O)(O)C(N1CCCCC1)P(=O)(O)O	200 µM	200 µM	
Cc1ccnc(NC(P(=O)(O)O)P(=O)(O)O)c1	200 µM	200 µM	
CCCCC(O)(P(=O)(O)O)P(=O)(O)O		200 µM	
C=P(O)(O)C(Nc1c(F)c(F)c(F)c(F)c1F)P(=O)(O)O (stereo unspecified)	200 µM	200 µM	
CCCCCCNC(P(=O)(O)O)P(=O)(O)O [(HEXYLAMINO)METHYLENEDIPHOSPHONIC ACID]		200 µM	
COc1ccc2nc3ccc(COC(=O)c4ccccc4)cc3c(Cl)c2c1			137 µM
CCCC(=O)OCc1ccc2nc3ccc(OC)cc3c(Cl)c2c1			3 µM
COc1ccc2nc3ccc(COC(=O)c4ccccc4)cc3c(N)c2c1			35 µM
COc1ccc2nc3ccc(COC(=O)c4ccc(Cl)cc4)cc3c(Cl)c2c1			156 µM

SMILES	IC50 (Plasmodium falciparum)	IC50 (Entamoeba histolytica)	IC50 (Leishmania infantum)
COc1ccc2nc3ccc(NCCCCCCNc4ccc5nc6ccc(OC)cc6c(N)c5c4)cc3c(N)c2c1			1 µM
COc1ccc(C(=O)OCc2ccc3nc4ccc(OC)cc4c(Cl)c3c2)cc1			125 µM
O=P(O)(O)C(Nc1ncc(Br)cc1Br)P(=O)(O)O	200 µM	29 µM	
NCCCC(O)(P(=O)(O)O)P(=O)(O)O [ALENDRONIC ACID]	200 µM	200 µM	
CC(C)CNC(P(=O)(O)O)P(=O)(O)O [(ISOBUTYLAMINO)METHYLENEDIPHOSPHONIC ACID]	200 µM	200 µM	
CCOP(=O)(OCC)C(Nc1cc(C)ccn1)P(=O)(OCC)OCC	200 µM	200 µM	
CCCNC(P(=O)(O)O)P(=O)(O)O [(PROPYLAMINO)METHYLENEDIPHOSPHONIC ACID]	200 µM	200 µM	
O=P(O)(O)C(O)(CSc1ccncc1)P(=O)(O)O		200 µM	
CCCN(CCC)C(P(=O)(O)O)P(=O)(O)O [(DIPROPYLAMINO)METHYLENEDIPHOSPHONIC ACID]	200 µM	200 µM	
CN(C)CCC(O)(P(=O)(O)O)P(=O)(O)O [OLPADRONIC ACID]	200 µM	200 µM	
CCCCCN(C)CCC(O)(P(=O)(O)O)P(=O)(O)O [IBANDRONIC ACID]	59 µM	54 µM	
COc1ccc2nc3ccc(NCCCCNc4ccc5nc6ccc(OC)cc6c(Cl)c5c4)cc3c(Cl)c2c1			10 µM
COc1ccc2nc3ccc(N(CCCCCCCN(c4ccc5nc6ccc(OC)cc6c(N)c5c4)c4ccc5nc6ccc(OC)cc6c(N)c5c4)c4ccc5nc6ccc(OC)cc6c(N)c5c4)cc3c(N)c2c1			139 µM
CCn1c2ccccc2c2ccc(NC(P(=O)(O)O)P(=O)(O)O)cc21		200 µM	
COc1ccc2nc3ccc(N(CCCCCCN(c4ccc5nc6ccc(OC)cc6c(Cl)c5c4)c4ccc5nc6ccc(OC)cc6c(Cl)c5c4)c4ccc5nc6ccc(OC)cc6c(Cl)c5c4)cc3c(Cl)c2c1			68 µM
O=P(O)(O)C(O)(Cc1ccccn1)P(=O)(O)O		200 µM	
COc1ccc2nc3ccc(CBr)cc3c(N)c2c1			4 µM
O=P(O)(O)C(Nc1nccc2ccccc12)P(=O)(O)O		200 µM	
CCCC(=O)OCc1ccc2nc3ccc(OC)cc3c(N)c2c1			3 µM
COc1ccc(C(=O)OCc2ccc3nc4ccc(OC)cc4c(N)c3c2)cc1			2 µM
CCCC(O)(P(=O)(O)O)P(=O)(O)O		200 µM	
COc1ccc2nc3ccc(NCCCCCCNc4ccc5nc6ccc(OC)cc6c(Cl)c5c4)cc3c(Cl)c2c1			3 µM

SMILES	IC50 (Plasmodium falciparum)	IC50 (Entamoeba histolytica)	IC50 (Leishmania infantum)
COc1ccc2nc3ccc(N(CCCCCCCCN(c4ccc5nc6ccc(OC)cc6c(N)c5c4)c4ccc5nc6ccc(OC)cc6c(N)c5c4)c4ccc5nc6ccc(OC)cc6c(N)c5c4)cc3c(N)c2c1			1 µM
COc1ccc2nc3ccc(COC(=O)c4ccc(F)cc4)cc3c(N)c2c1			1 µM
COc1ccc2nc3ccc(C)cc3c(N)c2c1			1 µM
COc1ccc2[nH]c([S+]([O-])Cc3ncc(C)c(OC)c3C)nc2c1 (stereo unspecified) [OMEPRAZOLE]	76 µM		
CN(C)/N=N\C(=O)C1C2c3ccccc3C(c3ccccc32)C1C(=O)/N=N/N(C)C (stereo unspecified)	33 µM		
CCOC(=O)C1C2c3ccccc3C(c3ccccc32)C1C(=O)N(C)C (stereo unspecified)	33 µM		
COc1cc(COc2ccc(Cc3cnc(N)nc3N)cc2)cc(OC)c1OC	21 µM		
COc1ccc2nc3ccc(C)cc3c(Cl)c2c1			10 µM
O=P(O)(O)C(NC1CCCC1)P(=O)(O)O [(CYCLOPENTYLAMINO)METHYLENEDIPHOSPHONIC ACID]	200 µM		
CCCCCCC1(C)N=C(N)N=C(N)N1c1cccc(Cl)c1 (stereo unspecified)	3 µM		
CC1(C)Oc2c(c3nc4ccccc4nc3c3ccccc23)CC1S(=O)(=O)O (stereo unspecified)	6 µM		
CC(C)(C)c1cc(NC(P(=O)(O)O)P(=O)(O)O)cc(C(C)(C)C)c1	200 µM		
CC(=O)[C@H]1CC[C@H]2[C@@H]3CCC4=CC(=O)CC[C@]4(C)[C@H]3CC[C@]12C [PROGESTERONE]	24 µM		
Nc1ncc(Cc2ccc(OCc3ccccc3)cc2)c(N)n1	21 µM		
O=C(NO)c1cccc(O)c1O	6 µM		
COc1ccnc(C[S+]([O-])c2nc3cc(OC(F)F)ccc3[nH]2)c1OC (stereo unspecified) [PANTOPRAZOLE]	39 µM		
CNCCCN1c2ccccc2CCc2ccccc21 [DESIPRAMINE]	12 µM		
CCCCCCC(O)(P(=O)(O)O)P(=O)(O)O	4 µM		
CC(=O)C1C(=O)Nc2ccccc21 (stereo unspecified)	29 µM		
CC(C)(C)NCc1cc(Nc2ccnc3cc(Cl)ccc23)cc(-c2ccc(Cl)cc2)c1O [TEBUQUINE]	53 µM		
CCCCCCCCCCOS(=O)(=O)O [SODIUM DECYL SULFATE]	460 µM		

Next, values leading:

IC50 (Plasmodium falciparum)	IC50 (Entamoeba histolytica)	IC50 (Leishmania infantum)	SMILES
103 µM	65 µM		CCCCCC(C)CNC(P(=O)(O)O)P(=O)(O)O (stereo unspecified)
		2 µM	COc1ccc2nc3ccc(N(CCCCCN(c4ccc5nc6ccc(OC)cc6c(Cl)c5c4)c4ccc5nc6ccc(OC)cc6c(Cl)c5c4)c4ccc5nc6ccc(OC)cc6c(Cl)c5c4)cc3c(Cl)c2c1
200 µM	21 µM		O=P(O)(O)C(O)(CCCCNCCCCc1ccccc1)P(=O)(O)O
		6 µM	COc1ccc2nc3ccc(CBr)cc3c(Cl)c2c1
200 µM	200 µM		O=P(O)(O)C(CNc1ccncc1)P(=O)(O)O
		2 µM	COc1ccc2nc3ccc(N(CCCCCN(c4ccc5nc6ccc(OC)cc6c(N)c5c4)c4ccc5nc6ccc(OC)cc6c(N)c5c4)c4ccc5nc6ccc(OC)cc6c(N)c5c4)cc3c(N)c2c1
200 µM	200 µM		O=P(O)(O)C(N1CCC(O)CC1)P(=O)(O)O
3 µM	23 µM		CN(CCCCc1ccccc1)CCCCC(O)(P(=O)(O)O)P(=O)(O)O
	200 µM		O=P(O)(O)C(CNc1ccccn1)P(=O)(O)O
		36 µM	COc1ccc2nc3ccc(COC(=O)CC(C)C)cc3c(Cl)c2c1
200 µM	200 µM		NCCCCCC(O)(P(=O)(O)O)P(=O)(O)O [NERIDRONIC ACID]
		3 µM	COc1ccc2nc3ccc(COC(=O)c4ccc(Cl)cc4)cc3c(N)c2c1
200 µM	200 µM		O=C(O)c1cn(C2CC2)c2cc(N3CCN(CC(P(=O)(O)O)P(=O)(O)O)CC3)c(F)cc2c1=O
46 µM	132 µM		CCCCCc1ccc(NC(P(=O)(O)O)P(=O)(O)O)cc1
200 µM	200 µM		O=P(O)(O)C(Nc1ncccc1OCc1ccccc1)P(=O)(O)O
		1 µM	COC(=O)OCc1ccc2nc3ccc(OC)cc3c(N)c2c1
	6 µM		CN(CCOc1ccccc1)CCC(O)(P(=O)(O)O)P(=O)(O)O
		3 µM	COC(=O)OCc1ccc2nc3ccc(OC)cc3c(Cl)c2c1
		183 µM	COc1ccc2nc3ccc(CO)cc3c(Cl)c2c1
200 µM			CC(C)CCNC(P(=O)(O)O)P(=O)(O)O [(ISOPENTYLAMINO)METHYLENEDIPHOSPHONIC ACID]
3 µM			CCc1nc(N)nc(N)c1Cc1ccc(OCc2ccccc2)c(OCc2ccccc2)c1
30 µM			Oc1ccc(Nc2ccnc3cc(Cl)ccc23)cc1CN1CCCC1 [AMOPYROQUINE]
32 µM			CN(C)C(=O)C1=CC2c3ccccc3C1c1ccccc12
1 µM			CNc1ccc(Nc2c3ccccc3nc3cc(Cl)ccc23)cc1
	200 µM		O=P(O)(O)C(N1CCOCC1)P(=O)(O)O [MORPHOLINOMETHYLENEDIPHOSPHONIC ACID]
		9 µM	COc1ccc2nc3cc(NCCCCCCCNc4ccc5nc6ccc(OC)cc6c(N)c5c4)ccc3c(N)c2c1
16 µM			O=C1NC(=O)C(C(=O)Nc2ccc(Cl)cc2)c2ccccc21 (stereo unspecified) [TESICAM]
782 µM			CCCCCCCCCC[N+](C)(C)CCCS(=O)(=O)[O-]
